The results in this text go back to patent US8450317B2, “CXCR3 receptor antagonists” (Boehringer Ingelheim International GmbH, priority 2009, dated 2013).

Structures are written as SMILES. pIC50: −log10 of the molar value.

The target of the assay is CXCR3 (Macaca fascicularis, UniProt A0A2K5UV19). Nature of the assay: functional cellular assay measuring calcium flux in CXCR3 transfected cells (block of CXCR3/IP-10 interaction). Type of assay: cell-based, Cyno. The note with it: IP-10 induced intracellular calcium flux; Cyno-CHO cells stably expressing recombinant CXCR3 and G-alpha-16; IP-10 at EC80; read-out: IC50. The method, then: Compounds are assessed for the ability to block the interaction of CXCR3 and IP-10 in a functional cellular assay measuring calcium flux in CXCR3 transfected cells.
Chain of CXCR3 (A0A2K5UV19 entry or part of it): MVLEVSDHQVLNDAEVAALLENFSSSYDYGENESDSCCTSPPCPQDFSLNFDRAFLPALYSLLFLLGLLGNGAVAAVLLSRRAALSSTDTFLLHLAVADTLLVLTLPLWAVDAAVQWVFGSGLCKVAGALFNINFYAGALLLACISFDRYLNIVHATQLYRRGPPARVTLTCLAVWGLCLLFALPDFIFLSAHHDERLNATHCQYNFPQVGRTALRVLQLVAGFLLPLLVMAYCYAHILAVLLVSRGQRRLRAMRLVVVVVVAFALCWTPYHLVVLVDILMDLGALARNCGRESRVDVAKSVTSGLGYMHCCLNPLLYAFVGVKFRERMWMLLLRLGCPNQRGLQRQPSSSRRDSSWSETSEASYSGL
Cyno-CHO cells, stably expressing recombinant CXCR3 and G-alpha-16 are grown in F12 medium (Mediatech #45000-360) supplemented with 10% (V/V) FBS (Mediatech #35-01500), 1% Geneticin (Invitrogen #10131-027) and 0.2% Zeocin (Invitrogen #R250-05). The cells are spun down and re-suspended in growth media to a concentration of […]. 25 microL of cell suspension is added to each well of a BD-384-well TC treated plate, providing 12,000 cells/well. The plate is incubated at 37° C./5% CO2 overnight. On the day of the assay, the plates are removed, the media is flicked out and 25 microL of Ca-4 dye in assay buffer (HBSS, 10 mM HEPES ph 7.4), containing 2 mM probenacid is added to each well. The cell assay plates are then incubated at 37° C./5% CO2 for one hour.
Test compounds are dissolved in DMSO and diluted to 1.045 mM in DMSO. Just prior to assay, 2.75 microL of appropriately diluted test compound are added to each well of a 384 well plate containing 45 microL of HBSS buffer. After mixing, 5 microL of diluted compound are added to each well of the cell assay plate for a final assay concentration of 10 microM. The plate is incubated at room temperature for 15 min. 10 microL of IP-10 stock solution in HBSS (4× EC80 concentration) are added to each well of the cell assay plate except those cells reserved as blank wells containing buffer only. Intracellular calcium flux is recorded on the HAMAMTSU FDSS6000, using excitation at 480 nm and emission at 540 nm. Data are analyzed using Activity Base software.
In general, the preferred potency range (IC50) of compounds in the above assay is between 1 nM to 3 μM, and the most preferred potency range is 1 nM to 200 nM.
For orientation: A change in cytosolic calcium serves as a functional read-out for many receptors and channels.
The pIC50 is the negative decadic logarithm of the IC50, by convention in mol/L. Consider `Cc1cc(C)n(CC(=O)N2CCN(c3ccccc3-c3ccc4ccn(C)c4c3)CC2)n1` [2-(3,5-Dimethyl-pyrazol-1-yl)-1-{4-[2-(1-methyl-1H-indol-6-yl)-phenyl]-piperazin-1-yl}-ethanone], for which the negative-log IC50 (pIC50) was 7.72.

Turning to `COc1ccc(-c2ccccc2N2CCN(C(=O)Cn3nc(C)cc3C)CC2)cn1` [2-(3,5-Dimethyl-pyrazol-1-yl)-1-{4-[2-(6-methoxy-pyridin-3-yl)-phenyl]-piperazin-1-yl}-ethanone], the pIC50 was 7.24. Next, `CSc1ncc(-c2cc(C(F)(F)F)ccc2N2CCN(C(=O)Cn3nc(C)cc3C)CC2)cn1` [2-(3,5-Dimethyl-pyrazol-1-yl)-1-{4-[2-(2-methylsulfanyl-pyrimidin-5-yl)-4-trifluoromethyl-phenyl]-piperazin-1-yl}-ethanone]: 8.30; `CS(=O)(=O)C1CCN(c2ncc(-c3cc(F)ccc3N3CCN(C(=O)Cn4ccc5cccnc54)CC3)cn2)CC1` [1-[4-(4-fluoro-2-{2-[4-(methylsulfonyl)piperidin-1-yl]pyrimidin-5-yl}phenyl)piperazin-1-yl]-2-(1H-pyrrolo[2,3-b]pyridin-1-yl)ethanone]: 8.05; `CC1CN(c2ccccc2-c2cnc(S(C)(=O)=O)nc2)CCN1C(=O)Cn1cnc2cccnc21` (stereo not drawn) [2-(3H-imidazo[4,5-b]pyridin-3-yl)-1-(2-methyl-4-{2-[2-(methylsulfonyl)pyrimidin-5-yl]phenyl}piperazin-1-yl)ethanone]: 6.36. As for `CS(=O)(=O)c1ncc(-c2cc(C(F)(F)F)ccc2N2CCN(C(=O)Cn3ccc4cccnc43)CC2)cn1` [1-{4-[2-(2-Methanesulfonyl-pyrimidin-5-yl)-4-trifluoromethyl-phenyl]-piperazin-1-yl}-2-pyrrolo[2,3-b]pyridin-1-yl-ethanone], the negative-log IC50 (pIC50) is 7.89. Next, `COc1ncc(-c2cc(F)ccc2N2CCN(C(=O)Cn3nc(C)cc3C)CC2)cn1` [2-(3,5-Dimethyl-pyrazol-1-yl)-1-{4-[4-fluoro-2-(2-methoxy-pyrimidin-5-yl)-phenyl]-piperazin-1-yl}-ethanone]: 7.85.

Take `CC1CN(c2ccc(F)cc2-c2cnc(N3CCC(S(C)(=O)=O)CC3)nc2)CCN1C(=O)CN1Cc2ccccc2C1=O` (stereo not drawn) [2-{2-[4-(4-fluoro-2-{2-[4-(methylsulfonyl)piperidin-1-yl]pyrimidin-5-yl}phenyl)-2-methylpiperazin-1-yl]-2-oxoethyl}-2,3-dihydro-1H-isoindol-1-one]: the pIC50 is 8.00. Regarding `COc1ncc(-c2cc(C(F)(F)F)ccc2N2CCN(C(=O)Cn3nc(C)cc3C)CC2)cn1` [2-(3,5-Dimethyl-pyrazol-1-yl)-1-{4-[2-(2-methoxy-pyrimidin-5-yl)-4-trifluoromethyl-phenyl]-piperazin-1-yl}-ethanone], the negative-log IC50 (pIC50) is 8.10. Next, `N#Cc1ccc(-c2ccccc2N2CCN(C(=O)Cn3ccc4cccnc43)CC2)cn1` [5-{2-[4-(2-Pyrrolo[2,3-b]pyridin-1-yl-acetyl)-piperazin-1-yl]-phenyl}-pyridine-2-carbonitrile]: 8.30. Next, `Cc1cc(C)n(CC(=O)N2CCN(c3ccc(F)cc3C(=O)Nc3nc4c(s3)CN(C)CC4)C[C@@H]2C)n1` [2-{(3S)-4-[(3,5-dimethyl-1H-pyrazol-1-yl)acetyl]-3-methylpiperazin-1-yl}-5-fluoro-N-(5-methyl-4,5,6,7-tetrahydro[1,3]thiazolo[5,4-c]pyridin-2-yl)benzamide]: 7.92. Next, `CCNc1ncc(-c2ccccc2N2CCN(C(=O)Cn3nc(C)cc3C)CC2)cn1` [2-(3,5-Dimethyl-pyrazol-1-yl)-1-{4-[2-(2-ethylamino-pyrimidin-5-yl)-phenyl]-piperazin-1-yl}-ethanone]: 8.00; `Cc1cc(C)n(CC(=O)N2CCN(c3ccccc3-c3cnc(N4CCCC(F)C4)nc3)CC2)n1` (stereo not drawn) [2-(3,5-Dimethyl-pyrazol-1-yl)-1-(4-{2-[2-(3-fluoro-piperidin-1-yl)-pyrimidin-5-yl]-phenyl}-piperazin-1-yl)-ethanone]: 8.10; `COc1ncc(-c2ccccc2N2CCN(C(=O)Cn3ncc4ccccc43)CC2)cn1` [2-Indazol-1-yl-1-{4-[2-(2-methoxy-pyrimidin-5-yl)-phenyl]-piperazin-1-yl}-ethanone]: 7.46. Turning to `CNc1ncc(-c2ccccc2N2CCN(C(=O)Cn3nc(C)cc3C)CC2)cn1` [2-(3,5-Dimethyl-pyrazol-1-yl)-1-{4-[2-(2-methylamino-pyrimidin-5-yl)-phenyl]-piperazin-1-yl}-ethanone], the negative-log IC50 (pIC50) is 7.47. On to `Cc1cc(C)n(CC(=O)N2CCN(c3ccccc3-c3cnc(N(C)C)nc3)CC2)n1` [1-{4-[2-(2-Dimethylamino-pyrimidin-5-yl)-phenyl]-piperazin-1-yl}-2-(3,5-dimethyl-pyrazol-1-yl)-ethanone], for which the negative logarithm of the IC50 (pIC50) is 8.15. Turning to `Cc1cc(C)n(CC(=O)N2CCN(c3ccc(C(F)(F)F)cc3-c3cnc(N4CCOCC4)nc3)CC2)n1` [2-(3,5-Dimethyl-pyrazol-1-yl)-1-{4-[2-(2-morpholin-4-yl-pyrimidin-5-yl)-4-trifluoromethyl-phenyl]-piperazin-1-yl}-ethanone], the pIC50 was 8.10. `C[C@@H]1CN(c2ccc(F)cc2C(=O)Nc2nc3c(s2)CN(C)CC3)CCN1C(=O)CN1Cc2ccccc2C1=O` [5-fluoro-2-{(3R)-3-methyl-4-[(1-oxo-1,3-dihydro-2H-isoindol-2-yl)acetyl]piperazin-1-yl}-N-(5-methyl-4,5,6,7-tetrahydro[1,3]thiazolo[5,4-c]pyridin-2-yl)benzamide]: the negative logarithm of the IC50 (pIC50) was 7.82. Next, `CC1CN(c2ccc(C(F)(F)F)cc2-c2cnc(S(C)(=O)=O)nc2)CCN1C(=O)CN1Cc2ccccc2C1=O` (stereo not drawn) [2-[2-(2-methyl-4-{2-[2-(methylsulfonyl)pyrimidin-5-yl]-4-(trifluoromethyl)phenyl}piperazin-1-yl)-2-oxoethyl]-2,3-dihydro-1H-isoindol-1-one]: 7.00; `CC1CN(c2ccccc2-c2cnc(N3CCC(S(C)(=O)=O)CC3)nc2)CCN1C(=O)CN1CCCCC1=O` (stereo not drawn) [1-{2-[2-methyl-4-(2-{2-[4-(methylsulfonyl)piperidin-1-yl]pyrimidin-5-yl}phenyl)piperazin-1-yl]-2-oxoethyl}piperidin-2-one]: 7.47; `CC1CN(c2ccccc2-c2cnc(N3CCC(S(C)(=O)=O)CC3)nc2)CCN1C(=O)Cn1ccc2ccncc21` (stereo not drawn) [1-[2-methyl-4-(2-{2-[4-(methylsulfonyl)piperidin-1-yl]pyrimidin-5-yl}phenyl)piperazin-1-yl]-2-(1H-pyrrolo[2,3-c]pyridin-1-yl)ethanone]: 8.10. Next, `CS(=O)(=O)c1ncc(-c2cc(F)ccc2N2CCN(C(=O)CN3Cc4ccccc4C3=O)CC2)cn1` [2-[2-(4-{4-fluoro-2-[2-(methylsulfonyl)pyrimidin-5-yl]phenyl}piperazin-1-yl)-2-oxoethyl]-2,3-dihydro-1H-isoindol-1-one]: 6.60; `O=C(Cn1cnc2cccnc21)N1CCN(c2ccc(F)cc2-c2cnc(N3CCCC3)nc2)CC1` [1-(4-{4-fluoro-2-[2-(pyrrolidin-1-yl)pyrimidin-5-yl]phenyl}piperazin-1-yl)-2-(3H-imidazo[4,5-b]pyridin-3-yl)ethanone]: 7.85.

Take `CC(C)C(=O)N(C)CC(=O)N1CCN(c2ccc(F)cc2C(=O)Nc2nc3c(s2)CN(C)CC3)C[C@@H]1C` [5-fluoro-2-{(3S)-3-methyl-4-[N-methyl-N-(2-methylpropanoyl)glycyl]piperazin-1-yl}-N-(5-methyl-4,5,6,7-tetrahydro[1,3]thiazolo[5,4-c]pyridin-2-yl)benzamide]: the pIC50 was 7.85.

With `CC1CN(c2ccc(F)cc2-c2cnc(N3CCC(S(C)(=O)=O)CC3)nc2)CCN1C(=O)CN1CCCCC1=O` (stereo not drawn) [1-{2-[4-(4-fluoro-2-{2-[4-(methylsulfonyl)piperidin-1-yl]pyrimidin-5-yl}phenyl)-2-methylpiperazin-1-yl]-2-oxoethyl}piperidin-2-one], the pIC50 was 7.85.

In the case of `C[C@@H]1CN(c2ncc(-c3ccccc3N3CCN(C(=O)Cn4ccc5cccnc54)CC3)cn2)C[C@H](C)O1` [1-(4-{2-[2-((2R,6S)-2,6-Dimethyl-morpholin-4-yl)-pyrimidin-5-yl]-phenyl}-piperazin-1-yl)-2-pyrrolo[2,3-b]pyridin-1-yl-ethanone], the pIC50 is 8.00.

Regarding `CC1CN(c2ccc(C(F)(F)F)cc2-c2cnc(S(C)(=O)=O)nc2)CCN1C(=O)Cn1c(=O)[nH]c2ccccc21` (stereo not drawn) [1-[2-(2-methyl-4-{2-[2-(methylsulfonyl)pyrimidin-5-yl]-4-(trifluoromethyl)phenyl}piperazin-1-yl)-2-oxoethyl]-1,3-dihydro-2H-benzimidazol-2-one], the negative logarithm of the IC50 (pIC50) was 7.70.
